Entries after “also recorded” stand apart in the source; their conditions may differ.
Assays:
ICR male mice = assay: Horizontal wire test; format: in vivo; settings: maximum number of fallen mice out of 6 per group; 100 mg/kg-body weight orally, suspended in 0.4% aqueous carboxymethyl cellulose
Excerpt: Thereafter, at constant intervals of time, the mice were suspended by their forepaws on the metallic wire held horizontally, and the number of animals failing to hang was counted.

in vivo = assay: in vivo; design: species or system mice; settings: mouse, po
Protocol: ICR male mice (body weight 20 to 30 g, 10 animals per one group) were used for the test.
A test drug was prepared by suspending Compound 3 into 0.4% aqueous solution of carboxymethyl cellulose, and it was orally administered.
Thereafter, the state of the animals was visually observed for 5 days. As the result, LD50 (mg/kg) was 1,000 mg/kg or more.

Wister male rats = assay: Test method using anaemic decerebrate rigidity animals; format: in vivo; settings: 3 mg/kg body weight intravenously in polyethylene glycol; three rats per group; visually followed over 60 minutes
Protocol: Each of Compound 1 and Compound 3 obtained in the synthesis examples was dissolved into 100% polyethylene glycol (molecular weight ca. 400) to prepare test drugs having a concentration of 0.3%. According to the method of Fukuda et al. (Fukuda, H., Ito, T., Hashimoto, S. and Kudo, Y., Japan. J. Pharmacol., (1974) 24; 810), the rigidity was induced in Wister male rats (body weight 250 to 350 g). Thus, by ligating both the common carotid arteries and coagulating the basilarartery by means of high frequency wave, the rigidity was induced in the fore legs of the animals. Using three animals as one group, each test drug was intravenously administered to the animals so that the amount of active ingredient came to 3 mg/kg body weight. Thereafter, whether the rigidity in the fore legs of the rat was relaxed or not was visually followed over a continuous 60 minutes.

Molecule	No. of fallen cases (ICR male mice)	LD50 at 120 h (in vivo) [mg/kg]	rigidity in the fore legs relaxed or not (Wister male rats)
2-(3',5'-Dichlorophenylcarbamoyl)-3(6)-methyl-4-cyclohexenecarboxylic Acid [Compound 5]	3	–	–
CC1C=CC(C)C2C(=O)N(c3cc(Cl)cc(Cl)c3)C(=O)C12 (centres unmarked) [Compound 3, N-(3',5'-Dichlorophenyl)-3,6-dimethyl-4-cyclohexene-1,2-dicarboxylic acid imide]	3	≥ 1000	the rigidity disappeared; also recorded: particularly marked rigidity - eliminating effect
CC1C=CC(C)C(C(=O)Nc2cc(Cl)cc(Cl)c2)C1C(=O)[O-].[Na+] (centres unmarked) [Compound 7, Sodium 2-(3',5'-Dichlorophenyl-carbamoyl)-3,6-dimethyl-4-cyclohexenecarboxylate]	3	–	–
CC1CCC(C)C2C(=O)N(c3cc(Cl)cc(Cl)c3)C(=O)C12 (centres unmarked) [Compound 4, N-(3' ,5'-Dichlorophenyl)-3,6-dimethyicyclo-hexane-l,2-dicarboxylic acid imide]	3	–	–
CC1C=CCC2C(=O)N(c3cc(Cl)cc(Cl)c3)C(=O)C12 (centres unmarked) [Compound 1, N-(3^1,5^1-Dichlorophenyl)-3-methyl-4-cyclohexene-l,2-dicarboxylic Acid Imide]	5	–	the rigidity disappeared
